From patent US20110207742A1, “METHOD FOR REDUCTION, STABILIZATION AND PREVENTION OF RUPTURE OF LIPID RICH PLAQUE” (KOWA CO., LTD., priority 2004, published 2011)

Experiments:
Type in all cases: in vivo, rabbit
WHHL rabbits [1] = experiment: Total plasma cholesterol (TC) level in WHHL rabbits after 16 weeks of administration; conditions: Pitavastatin 0.5 mg/kg, compound 1 10 mg/kg; for Total plasma cholesterol (mg/dL) Mean ± S.E: male homozygous WHHL rabbits, via drinking water for 16 weeks, control 646.8 ± 27.1
Description: For the investigation of the effect of these drugs on total plasma cholesterol (TC), one or both of the compound 1 (10 mg/kg) and Pitavastatin (0.5 mg/kg) were administered to WHHL rabbits via drinking water for 16 weeks to measure the TC of each of the WHHL rabbits.
(§1) A WHHL rabbit was discovered by Dr. Yoshio Watanabe, a former medical professor at Kobe University in 1973, and was established as a strain. The WHHL rabbit is a model animal which naturally develops hypercholesterolemia and arteriosclerosis. Using such WHHL rabbits, the effect of the drugs on plaque stabilization was examined according to the following method.
(§2) Male homozygous WHHL rabbits (Kitayama Labes, Nagano) were purchased from Oriental Yeast (Tokyo), and WHHL rabbits aged about 4 months were used for experiment. For control, single administration of Pitavastatin, single administration of the compound 1, combined administration of Pitavastatin and the compound 1, 8 WHHL rabbits, 7 WHHL rabbits, 3 WHHL rabbits, and 4 WHHL rabbits were used, respectively.
(§3) Pitavastatin was synthesized by Nissan Chemical Industries, Ltd. (Tokyo) and was supplied therefrom. In the case of administration of Pitavastatin, 0.5 mg/kg of Pitavastatin dissolved in 400 mL (which is an average amount of drinking water per rabbit a day) of drinking water was administered to each rabbit. In the case of administration of the compound 1, 10 mg/kg (in terms of free base) of the compound 1 dissolved in 400 mL (which is an average amount of drinking water per rabbit a day) of ion-exchange water was administered to each rabbit. One or both of the drugs were administered for 16 weeks.
In the next morning after last administration, each of the rabbits was placed in a restraining box, and the ear of the rabbit was sterilized with an alcohol. Then, about 1 mL of blood was collected from an ear vein with a syringe containing EDTA (final concentration, 0.1%). The collected blood was centrifuged at 4,200×g for 5 minutes to fractionate plasma. TC was measured using cholesterol E-test Wako (by a cholesterol oxidaseΩDAOS method).
(§4) The results of TC and the ratio of aortic plaque area were expressed as average±standard error. Significance test between the control group and the drug administration groups were detected using Dunnett's test. Histopathological findings were evaluated in terms of the percentage of plaque area occupied by macrophages and the percentage of plaque area occupied by collagen.

WHHL rabbits [2] = experiment: Ratio of aortic plaque area in WHHL rabbits; conditions: Pitavastatin 0.5 mg/kg, compound 1 10 mg/kg; for Ratio of aortic plaque area (%) Mean ± S.E: plaque area/aortic intimal surface area×100, 16 weeks via drinking water, control 49.6 ± 5.0; for Inhibition ratio (%) of ratio of aortic plaque area: vs control group, 16 weeks via drinking water
From the text: as §1, §2, §3
The rabbit was perfused at a perfusion pressure of 120 mmH2O with physiological saline injected from a cardiac apex for about 5 minutes. Further, the rabbit was perfused with 4% paraformaldehyde in the same manner as described above to fix an aorta. The aorta was excised from the rabbit, and fat and connective tissue attached to the aorta were separated. An incision was made along the lesser curvature of the aorta, and then the greater curvature of the aorta was partially incised. The aorta was sandwiched between plastic films in such a manner that the intimal side of the aorta was observed, and a macro image was taken (CAMEDIA E-10, manufactured by Olympus Corporation). Based on the image, plaque area (that is, the area of lipid deposition) and aortic intimal surface area were analyzed by an image analyzer (Win Roof Ver. 5.0, manufactured by MITANI CORPORATION). The ratio of aortic plaque area of each of the rabbits was obtained using the formula:
plaque area/aortic intimal surface area×100
as §4

WHHL rabbits [3] = experiment: Histopathology of Azan-stained aortic arch, image analysis of plaque area occupied by macrophages and collagen; conditions: Azan stain, 16 weeks, Pitavastatin 0.5 mg/kg, compound 1 10 mg/kg; for percentage of plaque area occupied by collagen: control 26.5%; for percentage of plaque area occupied by macrophages: control 29.5%
From the text: In addition to the evaluation of TC, an aorta excised from each WHHL rabbit was histopathologically examined After the completion of measurement, an aortic arch of each WHHL rabbit was immersion-fixed with 4% paraformaldehyde overnight, and was then embedded in paraffin in the usual manner to prepare a paraffin section. The paraffin section was stained with Azan stain. […] FIGS. 1A to 1D are microscope photographs of Azan-stained aortic arches of the WHHL rabbits, and FIGS. 2A and 2B are graphs which show the analysis results of the images shown in FIGS. 1A to 1D. In this regard, it is to be noted that FIG. 1A is a microscope photograph of a control group to which no drug was administered, FIG. 1B is a microscope photograph of a group to which Pitavastatin was administered in single, FIG. 1C is a microscope photograph of a group to which the compound 1 was administered in single, and FIG. 1D is a microscope photograph of a group to which Pitavastatin and the compound 1 were administered in combination.
as §1, §2
as §3, with “weeks. […]” for “weeks.”
as §4

| SMILES | effect on TC (in words) (WHHL rabbits [1]; WHHL rabbits, 16 weeks via drinking water) | Total plasma cholesterol (mg/dL) Mean ± S.E (WHHL rabbits [1]) [mg/dL] | Ratio of aortic plaque area (%) Mean ± S.E (WHHL rabbits [2]) [%] | Inhibition ratio (%) of ratio of aortic plaque area (WHHL rabbits [2]) [%] | percentage of plaque area occupied by collagen (WHHL rabbits [3]) [%] | percentage of plaque area occupied by macrophages (WHHL rabbits [3]) [%] | Inhibition ratio (%) of total plasma cholesterol (WHHL rabbits [1]; vs control group, WHHL rabbits, 16 weeks via drinking water) [%] |
| --- | --- | --- | --- | --- | --- | --- | --- |
| CSc1cc(C)nc(SC)c1NC(=O)CN1CCN(CCSc2nc3ccccc3[nH]2)CC1 [Compound 1, 2-[4-[2-(benzimidazole-2-ylthio)ethyl]piperazin-1-yl]-N-[2,4-bis(methylthio)-6-methyl-3-pyridyl]acetamide] | no effect on TC | 648.3 ± 82.2 | 43.7 ± 4.1 | 11.9 | 44.8 | 14.9 | – |
| O=C(O)C[C@H](O)C[C@H](O)/C=C/c1c(C2CC2)nc2ccccc2c1-c1ccc(F)cc1 [Pitavastatin] | – | 524.2 ± 35.6 | 47.1 ± 6.6 | 5.0 | 34.7 | 17.1 | 19 |
